The record followed here is patent publication US10787432B2, “N-[(pyridyloxy)propanyl]benzamides” (Boehringer Ingelheim International GmbH, priority 2016, dated 2020).

Each structure is given as a SMILES string.

System in one data set: not listed separately
The data set is described as follows: Assay C: Metabolic stability in human liver microsomes (Human MST). The class given is in vitro ADME. To be noted: pooled human liver microsomes, pH 7.6; human liver microsomes 1 mg/mL, compound 1 μM, 37° C., NADPH; read-out: Human MST t1/2. In a few lines: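 Test compound (1 μM) was incubated at 37 °C with pooled human liver microsomes (1 mg/mL protein) in 0.1 M TRIS pH 7.6 with 5 mM MgCl2, and reactions were started with 1 mM NADPH. Aliquots were quenched at several time points and parent compound was quantified by LC-MS/MS. t1/2 came from the slope of the semi-log concentration–time plot.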
A general note: Microsomes from liver hold many membrane-bound enzymes, among them those of drug oxidation.
Turning to `CCN(C(=O)c1ccc(F)cc1-n1nccn1)[C@@H](C)COc1ncc(C(F)(F)F)cc1F` [Example 48], the half-life at 1 μM worked out at 31 min.

As to `CCN(C(=O)c1ccccc1-n1nccn1)[C@@H](C)COc1ccc(Cl)cn1` [Example 46], the half-life at 1 μM was 35 min.

Consider `CCN(C(=O)c1ccccc1-c1cnnc(C)c1)[C@@H](C)COc1ccc(C(F)(F)F)cn1` [Example 84], for which the half-life at 1 μM was found to be 11 min.

`CCN(C(=O)c1cccc(F)c1-n1nccn1)[C@@H](C)COc1ncc(C(F)(F)F)cc1F` [Example 113]: the half-life at 1 μM amounted to 95 min.

Turning to `CCN(C(=O)c1cccc(F)c1-c1ncccn1)[C@@H](C)COc1ccc(C(F)(F)F)cn1` [Example 97], the half-life at 1 μM amounted to 100 min.

On to `CCN(C(=O)c1cc(F)c(F)cc1-n1nccn1)[C@@H](C)COc1ccc(Cl)cn1` [Example 30], for which the half-life at 1 μM came out at 52 min.

As to `CCN(C(=O)c1ccccc1-c1cnn(C)c1)[C@@H](C)COc1ccc(C(F)(F)F)cn1` [Example 93], the half-life at 1 μM turned out to be 18 min.

Turning to `CCN(C(=O)c1cc(F)ccc1-c1ncccn1)[C@@H](C)COc1ccc(Br)cn1` [Example 120], the half-life at 1 μM stood at 76 min.

In the case of `CCN(C(=O)c1cc(F)ccc1-n1nccn1)[C@@H](C)COc1ccc(Cl)cn1` [Example 29], the half-life at 1 μM was 55 min.

For `CCN(C(=O)c1cccc(F)c1-n1nccn1)[C@@H](C)COc1ccc(Br)cn1` [Example 111], the half-life at 1 μM is 62 min.

For `CCN(C(=O)c1ccc(OC)cc1-n1nccn1)[C@@H](C)COc1ncc(C(F)(F)F)cc1F` [Example 131], the half-life at 1 μM stood at 11 min.

Turning to `CCN(C(=O)c1cccc(Cl)c1-n1nccn1)[C@@H](C)COc1ccc(C(F)(F)F)cn1` [Example 90], the half-life at 1 μM was determined as 44 min.

For a further data set, the target named is T1, human Orexin 1 receptor (Homo sapiens, UniProt O43613).
T1 construct: stably expressing the full-length human Orexin 1 receptor; expressed in transfected cells; host or cells: CHO-K1 (CHO-K1/hOX1), co-expressing aequorin
T1 sequence (O43613 1-425): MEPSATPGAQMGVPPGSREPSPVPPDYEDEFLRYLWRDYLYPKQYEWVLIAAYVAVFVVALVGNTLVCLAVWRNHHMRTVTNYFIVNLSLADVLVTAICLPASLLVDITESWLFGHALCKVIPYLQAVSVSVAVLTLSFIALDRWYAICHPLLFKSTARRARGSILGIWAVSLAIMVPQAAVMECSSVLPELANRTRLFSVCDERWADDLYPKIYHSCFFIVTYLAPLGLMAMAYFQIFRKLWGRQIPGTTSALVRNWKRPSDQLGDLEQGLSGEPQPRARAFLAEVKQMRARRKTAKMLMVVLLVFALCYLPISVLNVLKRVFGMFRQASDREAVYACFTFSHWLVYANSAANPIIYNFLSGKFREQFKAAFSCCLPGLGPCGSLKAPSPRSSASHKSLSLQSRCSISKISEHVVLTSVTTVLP
The data set can be described thus: Assay A: In vitro testing of OX1R potency: OX1R IP1 (HTRF, CHO-K1/hOX1 cells, Orexin A as agonist). In kind it is cell-based. To be noted: OX1R Kb at 0.5 nM Orexin A. In general terms: In TR-FRET formats the signal depends on donor and acceptor labels being close together.
Turning to `CCN(C(=O)c1ccc(F)cc1-n1nccn1)[C@@H](C)COc1ncc(C(F)(F)F)cc1F` [Example 48], the “OX2R Kb/OX1R Kb” value is listed as 156.

On to `CCN(C(=O)c1ccccc1-c1cnnc(C)c1)[C@@H](C)COc1ccc(C(F)(F)F)cn1` [Example 84], for which the “OX2R Kb/OX1R Kb” value came to 150.

Take `CCN(C(=O)c1cccc(F)c1-n1nccn1)[C@@H](C)COc1ncc(C(F)(F)F)cc1F` [Example 113]: the “OX2R Kb/OX1R Kb” value came to 173.

In the case of `CCN(C(=O)c1cc(F)c(F)cc1-n1nccn1)[C@@H](C)COc1ccc(Cl)cn1` [Example 30], the “OX2R Kb/OX1R Kb” value is recorded as 70.

As to `CCN(C(=O)c1cc(F)ccc1-c1ncccn1)[C@@H](C)COc1ccc(Br)cn1` [Example 120], the “OX2R Kb/OX1R Kb” value is 165.

For `CCN(C(=O)c1cc(F)ccc1-n1nccn1)[C@@H](C)COc1ccc(Cl)cn1` [Example 29], the “OX2R Kb/OX1R Kb” value was 71.

With `CCN(C(=O)c1cccc(F)c1-n1nccn1)[C@@H](C)COc1ccc(Br)cn1` [Example 111], the “OX2R Kb/OX1R Kb” value was determined as 123.

With `CCN(C(=O)c1ccc(OC)cc1-n1nccn1)[C@@H](C)COc1ncc(C(F)(F)F)cc1F` [Example 131], the “OX2R Kb/OX1R Kb” value is recorded as 506.

Staying with this data set, now noted: OX1R Kb at 50 nM Orexin A.
Consider `CCN(C(=O)c1ccc(F)cc1-n1nccn1)[C@@H](C)COc1ncc(C(F)(F)F)cc1F` [Example 48], for which the “OX2R Kb/OX1R Kb” value is 220.

Turning to `CCN(C(=O)c1ccccc1-n1nccn1)[C@@H](C)COc1ccc(Cl)cn1` [Example 46], the “OX2R Kb/OX1R Kb” value was found to be 56.

Take `CCN(C(=O)c1cccc(F)c1-c1ncccn1)[C@@H](C)COc1ccc(C(F)(F)F)cn1` [Example 97]: the “OX2R Kb/OX1R Kb” value was found to be 800.

Turning to `CCN(C(=O)c1ccccc1-c1cnn(C)c1)[C@@H](C)COc1ccc(C(F)(F)F)cn1` [Example 93], the “OX2R Kb/OX1R Kb” value was found to be 99.

On to `CCN(C(=O)c1cc(F)ccc1-c1ncccn1)[C@@H](C)COc1ccc(Br)cn1` [Example 120], for which the “OX2R Kb/OX1R Kb” value is on record as 358.

In the case of `CCN(C(=O)c1cc(F)ccc1-n1nccn1)[C@@H](C)COc1ccc(Cl)cn1` [Example 29], the “OX2R Kb/OX1R Kb” value amounted to 81.

For `CCN(C(=O)c1cccc(F)c1-n1nccn1)[C@@H](C)COc1ccc(Br)cn1` [Example 111], the “OX2R Kb/OX1R Kb” value was determined as 213.

With `CCN(C(=O)c1ccc(OC)cc1-n1nccn1)[C@@H](C)COc1ncc(C(F)(F)F)cc1F` [Example 131], the “OX2R Kb/OX1R Kb” value is 900.

As for `CCN(C(=O)c1cccc(Cl)c1-n1nccn1)[C@@H](C)COc1ccc(C(F)(F)F)cn1` [Example 90], the “OX2R Kb/OX1R Kb” value is 520.

Still in this data set, the particulars now being: Orexin A 0.5 nM; read-out: OX1R Kb (Orexin A concentration used).
As to `CCN(C(=O)c1ccc(F)cc1-n1nccn1)[C@@H](C)COc1ncc(C(F)(F)F)cc1F` [Example 48], the Kb was found to be 1.31 nM.

Turning to `CCN(C(=O)c1ccccc1-c1cnnc(C)c1)[C@@H](C)COc1ccc(C(F)(F)F)cn1` [Example 84], the Kb turned out to be 8.6 nM.

`CCN(C(=O)c1cccc(F)c1-n1nccn1)[C@@H](C)COc1ncc(C(F)(F)F)cc1F` [Example 113]: the Kb amounted to 0.4 nM.

As for `CCN(C(=O)c1cc(F)c(F)cc1-n1nccn1)[C@@H](C)COc1ccc(Cl)cn1` [Example 30], the Kb is 2.3 nM.

As to `CCN(C(=O)c1cc(F)ccc1-c1ncccn1)[C@@H](C)COc1ccc(Br)cn1` [Example 120], the Kb is 0.26 nM.

Take `CCN(C(=O)c1cc(F)ccc1-n1nccn1)[C@@H](C)COc1ccc(Cl)cn1` [Example 29]: the Kb was 1 nM.

Take `CCN(C(=O)c1cccc(F)c1-n1nccn1)[C@@H](C)COc1ccc(Br)cn1` [Example 111]: the Kb was found to be 0.4 nM.

In the case of `CCN(C(=O)c1ccc(OC)cc1-n1nccn1)[C@@H](C)COc1ncc(C(F)(F)F)cc1F` [Example 131], the Kb was found to be 0.89 nM.

The same data set, now with this note: Orexin A 50 nM; read-out: OX1R Kb (Orexin A concentration used).
On to `CCN(C(=O)c1ccc(F)cc1-n1nccn1)[C@@H](C)COc1ncc(C(F)(F)F)cc1F` [Example 48], for which the Kb turned out to be 0.93 nM.

Regarding `CCN(C(=O)c1ccccc1-n1nccn1)[C@@H](C)COc1ccc(Cl)cn1` [Example 46], the Kb stood at 0.66 nM.

For the compound `CCN(C(=O)c1cccc(F)c1-c1ncccn1)[C@@H](C)COc1ccc(C(F)(F)F)cn1` [Example 97], the Kb is 0.025 nM.

Consider `CCN(C(=O)c1ccccc1-c1cnn(C)c1)[C@@H](C)COc1ccc(C(F)(F)F)cn1` [Example 93], for which the Kb was found to be 0.75 nM.

With `CCN(C(=O)c1cc(F)ccc1-c1ncccn1)[C@@H](C)COc1ccc(Br)cn1` [Example 120], the Kb worked out at 0.12 nM.

With `CCN(C(=O)c1cc(F)ccc1-n1nccn1)[C@@H](C)COc1ccc(Cl)cn1` [Example 29], the Kb worked out at 0.88 nM.

For `CCN(C(=O)c1cccc(F)c1-n1nccn1)[C@@H](C)COc1ccc(Br)cn1` [Example 111], the Kb turned out to be 0.23 nM.

`CCN(C(=O)c1ccc(OC)cc1-n1nccn1)[C@@H](C)COc1ncc(C(F)(F)F)cc1F` [Example 131]: the Kb turned out to be 0.5 nM.

For `CCN(C(=O)c1cccc(Cl)c1-n1nccn1)[C@@H](C)COc1ccc(C(F)(F)F)cn1` [Example 90], the Kb was 0.025 nM.

Another data set concerns the target T2, human orexin 2 receptor (Homo sapiens, UniProt O43614).
T2 construct: stably expressing the full-length human orexin 2 receptor; expressed in transfected cells; host or cells: CHO-K1 (CHO-K1/hOX2), co-expressing aequorin
T2 sequence (O43614 1-444): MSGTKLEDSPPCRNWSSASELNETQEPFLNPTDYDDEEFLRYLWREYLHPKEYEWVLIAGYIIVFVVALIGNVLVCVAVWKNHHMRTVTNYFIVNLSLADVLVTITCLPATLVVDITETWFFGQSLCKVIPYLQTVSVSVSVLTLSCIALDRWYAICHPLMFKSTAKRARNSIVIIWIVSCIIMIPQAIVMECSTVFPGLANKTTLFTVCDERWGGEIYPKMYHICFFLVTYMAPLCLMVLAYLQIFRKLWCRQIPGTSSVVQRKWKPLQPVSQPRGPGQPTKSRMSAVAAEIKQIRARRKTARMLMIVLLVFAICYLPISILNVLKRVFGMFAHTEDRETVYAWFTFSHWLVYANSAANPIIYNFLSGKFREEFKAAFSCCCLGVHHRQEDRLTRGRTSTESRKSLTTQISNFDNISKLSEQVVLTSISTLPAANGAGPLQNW
The data set can be described thus: Assay B: In vitro testing of OX2R potency: OX2R IP1 (HTRF, CHO-K1/hOX2 cells, Orexin A as agonist). The class given is cell-based. Particulars: Orexin A 0.5 nM. An outline of the steps:
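CHO-K1 cells stably expressing full-length human OX2R, pretreated 15 min at room temperature with compound (8-point, 1% DMSO) in HBSS/HEPES/BSA with 50 mM LiCl, pH 7.4, then stimulated 60 min at 37 °C with 0.5 nM Orexin A. IP1 by HTRF (665/615 ratio); IC50 from 4-parameter fit converted to agonist-independent Kb.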
In turn, `CCN(C(=O)c1ccc(F)cc1-n1nccn1)[C@@H](C)COc1ncc(C(F)(F)F)cc1F` [Example 48] returned a Kb of 205 nM.

For `CCN(C(=O)c1ccccc1-n1nccn1)[C@@H](C)COc1ccc(Cl)cn1` [Example 46], the Kb turned out to be 37 nM.

Regarding `CCN(C(=O)c1ccccc1-c1cnnc(C)c1)[C@@H](C)COc1ccc(C(F)(F)F)cn1` [Example 84], the Kb stood at 1290 nM.

`CCN(C(=O)c1cccc(F)c1-n1nccn1)[C@@H](C)COc1ncc(C(F)(F)F)cc1F` [Example 113]: the Kb was determined as 69 nM.

In turn, `CCN(C(=O)c1cccc(F)c1-c1ncccn1)[C@@H](C)COc1ccc(C(F)(F)F)cn1` [Example 97] gave a Kb of 20 nM.

`CCN(C(=O)c1cc(F)c(F)cc1-n1nccn1)[C@@H](C)COc1ccc(Cl)cn1` [Example 30] had a Kb of 160 nM.

In turn, `CCN(C(=O)c1ccccc1-c1cnn(C)c1)[C@@H](C)COc1ccc(C(F)(F)F)cn1` [Example 93] registered a Kb of 74 nM.

`CCN(C(=O)c1cc(F)ccc1-c1ncccn1)[C@@H](C)COc1ccc(Br)cn1` [Example 120]: the Kb amounted to 43 nM.

`CCN(C(=O)c1cc(F)ccc1-n1nccn1)[C@@H](C)COc1ccc(Cl)cn1` [Example 29] showed a Kb of 71 nM.

`CCN(C(=O)c1cccc(F)c1-n1nccn1)[C@@H](C)COc1ccc(Br)cn1` [Example 111]: the Kb was 49 nM.

For the compound `CCN(C(=O)c1ccc(OC)cc1-n1nccn1)[C@@H](C)COc1ncc(C(F)(F)F)cc1F` [Example 131], the Kb is 450 nM.

`CCN(C(=O)c1cccc(Cl)c1-n1nccn1)[C@@H](C)COc1ccc(C(F)(F)F)cn1` [Example 90] had a Kb of 13 nM.
